In patent publication US7198651B2, “Method of effecting a reversible color change of dyed hair” (Kao Corporation, priority 2003, dated 2007):
Read-outs that look alike come from different tables or passages of the source.

Experiment: Measurement of pKa value of the dyes (spectrophotometric titration)
Type: physicochemical
Conditions: titration from pH 2 with NaOH, UV-vis inflection point
Procedure: The pKa values of the dyes can be determined by the following method. The dye is dissolved in a solution of a DMF/water (1/1) volume ratio to a final concentration of 2×10^−5 mol/l. After adjusting the resulting solution to pH 2, using 1.0 mol/l hydrochloric acid, the solution is titrated with aqueous 1.0 mol/l sodium hydroxide solution. Recording the change of the visible ultra-violet absorption spectrum, the inflection point can be determined by regression analysis.

[1] = DMF/water (1/1 v/v) solution, read-out: pKa

Structure (SMILES)	pKa (DMF/water (1/1))	pKa [1]
CS(=O)(=O)Nc1cccc2c(O)ccc(N=Nc3nc4ccccc4s3)c12 [Dye 9]	6.1	
Cc1nsc(/N=N/c2cc(Cl)c(O)cc2Cl)n1 [Dye 30, reference compound]	3.8	
CC(=O)Nc1cc(/N=N/c2nncs2)ccc1O [Dye 1]	6.0	
CCSc1nnc(N=Nc2ccc(O)c3cccc(NS(C)(=O)=O)c23)s1 [Dye 8]	4.4	
CS(=O)(=O)Nc1cccc2c(O)ccc(/N=N/c3snc4ccc(S(N)(=O)=O)cc34)c12 [Dye 10]		5
CS(=O)(=O)c1ccc(/N=N/c2ccc(O)c3ccccc23)c(C#N)c1 [Dye 3]	6.5	
CCSc1nnc(/N=N/c2c(C(C)(C)C)nn3nc(C)[nH]c23)s1 [Dye 22]	5.5	
CC(=O)Nc1cc(/N=N/c2ccc(S(C)(=O)=O)cc2C#N)c2ccccc2c1O [Dye 4]		7
CCC(=O)Nc1cc(/N=N/c2nc(C)ns2)cc(Cl)c1O [Dye 29, reference compound]	3.3	
Oc1ccc(/N=N/c2nc3ccccc3s2)cc1Cl [Dye 7]	5.9	
CC(=O)Nc1cc(/N=N/c2nc3ccccc3s2)ccc1O [Dye 6]	6.2	
CCSc1nnc(/N=N/c2c(C(C)(C)C)nn3nc(C(C)C)[nH]c23)s1 [Dye 35, reference compound]	4.7	
COCCOc1ccc(N=NC2C(=O)N(c3ccccc3)N=C2C(N)=O)cc1S(N)(=O)=O (stereo not drawn) [Dye 21]	6.4	
CCc1nn2c(-c3ccc(OC)c(NS(C)(=O)=O)c3)n[nH]c2c1/N=N/c1nc(C(C)C)no1 [Dye 36, reference compound]	5.2	
CSc1nnc(/N=N/c2ccc(O)c(NC(C)=O)c2)s1 [Dye 5]	6.1	
CNS(=O)(=O)c1ccc2nsc(/N=N/c3cc(NC(C)=O)c(O)c(NC(C)=O)c3)c2c1 [Dye 39, reference compound]	3.9	

Further lines, results first:

pKa (DMF/water (1/1))	pKa [1]	Structure (SMILES)
	3	CC(=O)Nc1cc(/N=N/c2snc3ccc(S(N)(=O)=O)cc23)c(Cl)c(Cl)c1O [Dye 27, reference compound]
5.5		O=C(Nc1cc(/N=N/c2nc(-c3ccccc3)no2)c2ccccc2c1O)c1ccncc1 [Dye 2]
5.9		Cc1nn2nc(C(C)(C)C)c(/N=N/c3cc(Cl)c(S(N)(=O)=O)cc3Cl)c2[nH]1 [Dye 24]
5.2		CC(=O)Nc1cc(N=Nc2nc(C)ns2)ccc1O [Dye 32, reference compound]
	4.8	CCC(=O)Nc1cc(/N=N/c2nccs2)cc(Cl)c1O [Dye 28, reference compound]
4.7		NS(=O)(=O)c1ccc2nsc(N=Nc3cc(Cl)c(O)cc3Cl)c2c1 [Dye 13]
4.0		CCC(=O)Nc1cc(N=Nc2snc3ccc(S(N)(=O)=O)cc23)cc(Cl)c1O [Dye 12]
3.0		CCSc1nsc(/N=N/c2cc(Cl)c(O)c(NC(=O)CC)c2)n1 [Dye 25, reference compound]
5.8		N#CC(/N=N/c1ccc(S(N)(=O)=O)cc1)C(=O)c1ccccc1 (stereo not drawn) [Dye 23]
5.0		Cc1nsc(/N=N/c2ccc(O)c(Cl)c2)n1 [Dye 31, reference compound]
3.5		CCSc1nsc(/N=N/c2cc(Cl)c(O)cc2Cl)n1 [Dye 26, reference compound]
